# From ChEMBL document CHEMBL1135648, “Synthesis and evaluation of no-carrier-added 8-cyclopentyl-3-(3-[(18)F]fluoropropyl)-1-propylxanthine ([(18)F]CPFPX): a potent and selective A(1)-adenosine receptor antagonist for in vivo imaging” (J Med Chem, 2002)
# Tests used:
# Mus musculus [1] = experiment: In vivo biodistribution in NMRI (Naval Medical Research Institute) mice spleen at the dose of 0.15-0.2 nmol at 2 min; assay type: ADME, organism-based
# Mus musculus [2] = experiment: In vivo biodistribution in NMRI (Naval Medical Research Institute) mice liver at the dose of 0.15-0.2 nmol at 60 min; assay type: ADME, organism-based; details: 1 h
# Mus musculus [3] = experiment: In vivo biodistribution in NMRI (Naval Medical Research Institute) mice kidney at the dose of 0.15-0.2 nmol at 5 min; assay type: ADME, organism-based
# Mus musculus [4] = experiment: In vivo biodistribution in NMRI (Naval Medical Research Institute) mice lung at the dose of 0.15-0.2 nmol at 10 min; assay type: ADME, organism-based
# Mus musculus [5] = experiment: In vivo biodistribution in NMRI (Naval Medical Research Institute) mice heart at the dose of 0.15-0.2 nmol at 40 min; assay type: ADME, organism-based
# Mus musculus [6] = experiment: In vivo biodistribution in NMRI (Naval Medical Research Institute) mice spleen at the dose of 0.15-0.2 nmol at 40 min; assay type: ADME, organism-based
# [7] = Ultrafiltration in human plasma; assay type: functional
# Mus musculus [8] = experiment: In vivo biodistribution in NMRI (Naval Medical Research Institute) mice kidney at the dose of 0.15-0.2 nmol at 60 min; assay type: ADME, organism-based; details: 1 h
# Mus musculus [9] = experiment: In vivo biodistribution in NMRI (Naval Medical Research Institute) mice brain at the dose of 0.15-0.2 nmol at 20 min; assay type: ADME, organism-based
# Mus musculus [10] = experiment: In vivo biodistribution in NMRI (Naval Medical Research Institute) mice blood at the dose of 0.15-0.2 nmol at 5 min; assay type: ADME, organism-based
# Mus musculus [11] = experiment: In vivo biodistribution in NMRI (Naval Medical Research Institute) mice intestine at the dose of 0.15-0.2 nmol at 40 min; assay type: ADME, organism-based
# Mus musculus [12] = experiment: In vivo biodistribution in NMRI (Naval Medical Research Institute) mice bone at the dose of 0.15-0.2 nmol at 5 min; assay type: ADME, organism-based, Bone element
# Mus musculus [13] = experiment: In vivo biodistribution in NMRI (Naval Medical Research Institute) mice intestine at the dose of 0.15-0.2 nmol at 5 min; assay type: ADME, organism-based
# Mus musculus [14] = experiment: In vivo biodistribution in NMRI (Naval Medical Research Institute) mice bone at the dose of 0.15-0.2 nmol at 20 min; assay type: ADME, organism-based, Bone element
# Mus musculus [15] = experiment: In vivo biodistribution in NMRI (Naval Medical Research Institute) mice brain at the dose of 0.15-0.2 nmol at 40 min; assay type: ADME, organism-based
# Mus musculus [16] = experiment: In vivo biodistribution in NMRI (Naval Medical Research Institute) mice kidney at the dose of 0.15-0.2 nmol at 40 min; assay type: ADME, organism-based
# Mus musculus [17] = experiment: In vivo biodistribution in NMRI (Naval Medical Research Institute) mice blood at the dose of 0.15-0.2 nmol at 20 min; assay type: ADME, organism-based
# Mus musculus [18] = experiment: In vivo biodistribution in NMRI (Naval Medical Research Institute) mice pancreas at the dose of 0.15-0.2 nmol at 2 min; assay type: ADME, organism-based
# Adenosine receptor A1 = target: T1, Adenosine receptor A1 (Rattus norvegicus, UniProt P25099); experiment: In vitro binding affinity at rat Adenosine A1 receptor
# T1 sequence (P25099 whole entry): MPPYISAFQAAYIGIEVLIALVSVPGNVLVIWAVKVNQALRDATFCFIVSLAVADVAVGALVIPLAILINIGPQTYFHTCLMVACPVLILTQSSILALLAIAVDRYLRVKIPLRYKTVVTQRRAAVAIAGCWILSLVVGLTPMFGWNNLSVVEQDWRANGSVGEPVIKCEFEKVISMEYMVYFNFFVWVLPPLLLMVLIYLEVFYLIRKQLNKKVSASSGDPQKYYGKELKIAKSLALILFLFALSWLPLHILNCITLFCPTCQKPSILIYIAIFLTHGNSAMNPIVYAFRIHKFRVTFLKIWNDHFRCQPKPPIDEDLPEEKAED
# Mus musculus [19] = experiment: In vivo biodistribution in NMRI (Naval Medical Research Institute) mice heart at the dose of 0.15-0.2 nmol at 5 min; assay type: ADME, organism-based
# Mus musculus [20] = experiment: In vivo biodistribution in NMRI (Naval Medical Research Institute) mice lung at the dose of 0.15-0.2 nmol at 5 min; assay type: ADME, organism-based
# Mus musculus [21] = experiment: In vivo biodistribution in NMRI (Naval Medical Research Institute) mice spleen at the dose of 0.15-0.2 nmol at 20 min; assay type: ADME, organism-based
# Mus musculus [22] = experiment: In vivo biodistribution in NMRI (Naval Medical Research Institute) mice pancreas at the dose of 0.15-0.2 nmol at 5 min; assay type: ADME, organism-based
# Mus musculus [23] = experiment: In vivo biodistribution in NMRI (Naval Medical Research Institute) mice lung at the dose of 0.15-0.2 nmol at 20 min; assay type: ADME, organism-based
# Mus musculus [24] = experiment: In vivo biodistribution in NMRI (Naval Medical Research Institute) mice heart at the dose of 0.15-0.2 nmol at 2 min; assay type: ADME, organism-based
# Mus musculus [25] = experiment: In vivo biodistribution in NMRI (Naval Medical Research Institute) mice brain at the dose of 0.15-0.2 nmol at 60 min; assay type: ADME, organism-based; details: 1 h
# Mus musculus [26] = experiment: In vivo biodistribution in NMRI (Naval Medical Research Institute) mice pnacreas at the dose of 0.15-0.2 nmol at 20 min; assay type: ADME, organism-based
# Mus musculus [27] = experiment: In vivo biodistribution in NMRI (Naval Medical Research Institute) mice blood at the dose of 0.15-0.2 nmol at 60 min; assay type: ADME, organism-based; details: 1 h
# Mus musculus [28] = experiment: In vivo biodistribution in NMRI (Naval Medical Research Institute) mice intestine at the dose of 0.15-0.2 nmol at 2 min; assay type: ADME, organism-based
# Mus musculus [29] = experiment: In vivo biodistribution in NMRI (Naval Medical Research Institute) mice blood at the dose of 0.15-0.2 nmol at 10 min; assay type: ADME, organism-based
# Mus musculus [30] = experiment: In vivo biodistribution in NMRI (Naval Medical Research Institute) mice pancreas at the dose of 0.15-0.2 nmol at 40 min; assay type: ADME, organism-based
# Mus musculus [31] = experiment: In vivo biodistribution in NMRI (Naval Medical Research Institute) mice pancreas at the dose of 0.15-0.2 nmol at 10 min; assay type: ADME, organism-based
structure (smiles),measurement,setting,value
CCCn1c(=O)c2nc(C3CCCC3)[nH]c2n(CCC[18F])c1=O,ID/g,Mus musculus [1],2.25%
same,ID/g,Mus musculus [2],4.36%
same,ID/g,Mus musculus [3],3.81%
same,ID/g,Mus musculus [4],5.79%
same,ID/g,Mus musculus [5],4.23%
same,ID/g,Mus musculus [6],1.79%
same,Ultrafiltration,[7],86
same,ID/g,Mus musculus [8],2.63%
same,ID/g,Mus musculus [9],2.39%
same,ID/g,Mus musculus [10],6.53%
same,ID/g,Mus musculus [11],3.74%
same,ID/g,Mus musculus [12],1.4%
same,ID/g,Mus musculus [13],2.21%
same,ID/g,Mus musculus [14],2.02%
same,ID/g,Mus musculus [15],2.52%
same,ID/g,Mus musculus [16],5.95%
same,ID/g,Mus musculus [17],4.13%
same,ID/g,Mus musculus [18],3.58%
same,Kd,Adenosine receptor A1,0.63 nM
same,ID/g,Mus musculus [19],3.71%
same,ID/g,Mus musculus [20],4.22%
same,ID/g,Mus musculus [21],1.78%
same,ID/g,Mus musculus [22],3.35%
same,ID/g,Mus musculus [23],5.75%
same,ID/g,Mus musculus [24],4.64%
same,ID/g,Mus musculus [25],1.55%
same,ID/g,Mus musculus [26],4.58%
same,ID/g,Mus musculus [27],1.55%
same,ID/g,Mus musculus [28],2.07%
same,ID/g,Mus musculus [29],5.21%
same,ID/g,Mus musculus [30],3.22%
same,ID/g,Mus musculus [31],4.29%
